Laboratory results taken from ChEMBL document CHEMBL1149393, “Single-site chemical modification at C10 of the baccatin III core of paclitaxel and Taxol C reduces P-glycoprotein interactions in bovine brain microvessel endothelial cells” (Bioorg Med Chem Lett, 2006).
pEC50: −log10 of the molar value.

What was measured:
Tubulin (Homo sapiens) [1] = target: T1, Tubulin (Homo sapiens) (UniProt P68371+Q9H4B7+P0DPH7+P68366+Q13509+Q71U36+P04350+Q3ZCM7+P07437+P68363+Q9BQE3+Q6PEY2+Q13885+Q9BVA1+Q9BUF5); test: Activity in tubulin assembly assay relative to paclitaxel; format: functional
Tubulin (Homo sapiens) [2] = target: T1, Tubulin (Homo sapiens); test: Cytotoxicity against human breast cancer MCF7 cell line relative to paclitaxel; format: functional, cell-based
Tubulin (Homo sapiens) [3] = target: T1, Tubulin (Homo sapiens); test: Cytotoxicity against multidrug resistant breast cancer MCF7/ADR cell line relative to paclitaxel; format: functional, cell-based; settings: NCI/ADR-RES
NCI/ADR-RES = test: Cytotoxicity against multidrug resistant breast cancer MCF7/ADR cell line; format: functional; settings: Homo sapiens, read-out: ED50 (the source's name)
MCF7 = test: Cytotoxicity against human breast cancer MCF7 cell line; format: functional; settings: read-out: ED50 (the source's name)

SMILES | Ratio ED50 (Tubulin (Homo sapiens) [1]) | Ratio ED50 (Tubulin (Homo sapiens) [2]) | Ratio ED50 (Tubulin (Homo sapiens) [3]) | pEC50 (NCI/ADR-RES) | pEC50 (MCF7)
CCCCCC(=O)N[C@@H](c1ccccc1)[C@@H](O)C(=O)O[C@H]1C[C@@]2(O)[C@@H](OC(=O)c3ccccc3)[C@@H]3[C@]4(OC(C)=O)CO[C@@H]4C[C@H](O)[C@@]3(C)C(=O)[C@@H](OC(=O)CC)C(=C1C)C2(C)C | 2.1 | 3.8 | 2.9 |  | 
CCCCCC(=O)N[C@@H](c1ccccc1)[C@@H](O)C(=O)O[C@H]1C[C@@]2(O)[C@@H](OC(=O)c3ccccc3)[C@@H]3[C@]4(OC(C)=O)CO[C@@H]4C[C@H](O)[C@@]3(C)C(=O)[C@@H](O)C(=C1C)C2(C)C | 1.6 | 9.2 | 3.1 |  | 
CCCCCC(=O)N[C@@H](c1ccccc1)[C@@H](O)C(=O)O[C@H]1C[C@@]2(O)[C@@H](OC(=O)c3ccccc3)[C@@H]3[C@]4(OC(C)=O)CO[C@@H]4C[C@H](O)[C@@]3(C)C(=O)[C@H](OC(C)=O)C(=C1C)C2(C)C | 2 | 2.2 | 0.48 |  | 
CC(=O)O[C@@H]1C(=O)[C@@]2(C)[C@H]([C@H](OC(=O)c3ccccc3)[C@]3(O)C[C@H](OC(=O)[C@H](O)[C@@H](NC(=O)c4ccccc4)c4ccccc4)C(C)=C1C3(C)C)[C@]1(OC(C)=O)CO[C@@H]1C[C@@H]2O | 0.8 | 0.7 | 1.3 |  | 
CCCCCC(=O)N[C@@H](c1ccccc1)[C@@H](O)C(=O)O[C@H]1C[C@@]2(O)[C@@H](OC(=O)c3ccccc3)[C@@H]3[C@]4(OC(C)=O)CO[C@@H]4C[C@H](O)[C@@]3(C)C(=O)[C@@H](OC(C)=O)C(=C1C)C2(C)C | 0.21 | 3.2 | 1.6 |  | 
CCC(=O)O[C@@H]1C(=O)[C@@]2(C)[C@H]([C@H](OC(=O)c3ccccc3)[C@]3(O)C[C@H](OC(=O)[C@H](O)[C@@H](NC(=O)c4ccccc4)c4ccccc4)C(C)=C1C3(C)C)[C@]1(OC(C)=O)CO[C@@H]1C[C@@H]2O | 4.1 | 2.6 | 1.1 |  | 
CC(=O)O[C@@]12CO[C@@H]1C[C@H](O)[C@@]1(C)C(=O)[C@H](O)C3=C(C)[C@@H](OC(=O)[C@H](O)[C@@H](NC(=O)c4ccccc4)c4ccccc4)C[C@@](O)([C@@H](OC(=O)c4ccccc4)[C@H]21)C3(C)C | 2.1 | 7.5 | 6.6 |  | 
CCCCCC(=O)N[C@@H](c1ccccc1)[C@@H](O)C(=O)O[C@H]1C[C@@]2(O)[C@@H](OC(=O)c3ccccc3)[C@@H]3[C@]4(OC(C)=O)CO[C@@H]4C[C@H](O)[C@@]3(C)C(=O)[C@H](O)C(=C1C)C2(C)C | 2.2 | 4.8 | 3.8 |  | 
CC(=O)O[C@@]12CO[C@@H]1C[C@H](O)[C@@]1(C)C(=O)[C@@H](O)C3=C(C)[C@@H](OC(=O)[C@H](O)[C@@H](NC(=O)c4ccccc4)c4ccccc4)C[C@@](O)([C@@H](OC(=O)c4ccccc4)[C@H]21)C3(C)C | 3.2 | 1.4 | 0.7 |  | 
CC(=O)O[C@H]1C(=O)[C@@]2(C)[C@H]([C@H](OC(=O)c3ccccc3)[C@]3(O)C[C@H](OC(=O)[C@H](O)[C@@H](NC(=O)c4ccccc4)c4ccccc4)C(C)=C1C3(C)C)[C@]1(OC(C)=O)CO[C@@H]1C[C@@H]2O [PACLITAXEL] | 1 |  |  | 8.82 | 8.49
